Our source for the Kd and EC50 values is PMC8967002, “Quantitative input–output dynamics of a c-di-GMP signal transduction cascade in Vibrio cholerae” (PLoS Biology, 2022).

In one assay the target is NspS-6xHis (Vibrio cholerae, UniProt Q9KU25). The experiment in a line: biochemical.
In another assay the target is NspS-MbaA (Vibrio cholerae, UniProt Q9KU25). The following applies: ΔnspC ΔpotD1 V. cholerae cells (no norspermidine synthesis or import); M9 minimal medium; activates MbaA diguanylate cyclase output via NspS.
NspS-MbaA, sequence (Q9KU25 whole entry, looked up): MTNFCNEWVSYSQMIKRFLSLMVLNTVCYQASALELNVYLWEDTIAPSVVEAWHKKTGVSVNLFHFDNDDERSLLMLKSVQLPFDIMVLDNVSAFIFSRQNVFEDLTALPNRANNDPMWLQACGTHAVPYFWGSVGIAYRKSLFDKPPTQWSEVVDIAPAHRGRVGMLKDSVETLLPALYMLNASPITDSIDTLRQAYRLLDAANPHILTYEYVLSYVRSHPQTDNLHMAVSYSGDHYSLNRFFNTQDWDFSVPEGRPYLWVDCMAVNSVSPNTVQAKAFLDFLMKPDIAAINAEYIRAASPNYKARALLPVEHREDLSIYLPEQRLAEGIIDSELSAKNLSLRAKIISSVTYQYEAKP

NspS-6xHis, sequence (Q9KU25 35-359 limits assumed): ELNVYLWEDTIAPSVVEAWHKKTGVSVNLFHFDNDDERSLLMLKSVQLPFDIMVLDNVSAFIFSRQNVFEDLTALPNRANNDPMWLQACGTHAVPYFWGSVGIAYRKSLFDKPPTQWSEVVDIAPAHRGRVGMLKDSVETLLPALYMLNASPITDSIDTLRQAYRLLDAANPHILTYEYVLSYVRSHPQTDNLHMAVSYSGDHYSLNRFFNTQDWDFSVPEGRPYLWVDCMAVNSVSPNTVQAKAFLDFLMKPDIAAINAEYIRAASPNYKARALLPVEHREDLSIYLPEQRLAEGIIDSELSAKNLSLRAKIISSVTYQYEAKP

With `NCCCCNCCCN` [spermidine], the dissociation constant (Kd) (as a rule, the free concentration of one partner at which half of the binding sites on the other are occupied at equilibrium, for simple one-to-one binding) at NspS-6xHis amounted to 48.4 ± 14.7 nM. As to `NCCCNCCCN` [norspermidine], the EC50 (usually the concentration needed to bring the measured effect to its halfway point) at NspS-MbaA fell in the range of 1 to 5 nM. In addition, the dissociation constant (Kd) at NspS-6xHis was 67.1 ± 12.2 nM.
